The subject of experiment [1] is wildtype Wnt signaling cascade. As to the kind of experiment: HEK293 TOP assay (Super TopFlash luciferase reporter, Wnt-3a stimulated). Conditions: HEK293 TOP reporter cells, Wnt3a at EC50, 16 hours. The experiment is classed as cell-based. The essentials:
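HEK293 cells stably carrying Super TopFlash (TOP) run in parallel with FOP cells, 10000/well plated 24 h ahead, stimulated with recombinant human Wnt-3a. Compounds tested 50 μM to 15 nM in 3.16-fold steps in CAFTY buffer pH 7.4 with 2 mM Ca^2+ and 0.01% BSA; luciferase read-out.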
For orientation: A reporter such as luciferase makes a cellular process visible.

For another experiment, the target named is T1, TNKS2 (Homo sapiens, UniProt Q9H2K2).
T1 construct: purchased BPS Bioscience, San Diego, USA 80572 (TNKS2 Histone Ribosylation Assay Kit)
T1 sequence (Q9H2K2 1-1166): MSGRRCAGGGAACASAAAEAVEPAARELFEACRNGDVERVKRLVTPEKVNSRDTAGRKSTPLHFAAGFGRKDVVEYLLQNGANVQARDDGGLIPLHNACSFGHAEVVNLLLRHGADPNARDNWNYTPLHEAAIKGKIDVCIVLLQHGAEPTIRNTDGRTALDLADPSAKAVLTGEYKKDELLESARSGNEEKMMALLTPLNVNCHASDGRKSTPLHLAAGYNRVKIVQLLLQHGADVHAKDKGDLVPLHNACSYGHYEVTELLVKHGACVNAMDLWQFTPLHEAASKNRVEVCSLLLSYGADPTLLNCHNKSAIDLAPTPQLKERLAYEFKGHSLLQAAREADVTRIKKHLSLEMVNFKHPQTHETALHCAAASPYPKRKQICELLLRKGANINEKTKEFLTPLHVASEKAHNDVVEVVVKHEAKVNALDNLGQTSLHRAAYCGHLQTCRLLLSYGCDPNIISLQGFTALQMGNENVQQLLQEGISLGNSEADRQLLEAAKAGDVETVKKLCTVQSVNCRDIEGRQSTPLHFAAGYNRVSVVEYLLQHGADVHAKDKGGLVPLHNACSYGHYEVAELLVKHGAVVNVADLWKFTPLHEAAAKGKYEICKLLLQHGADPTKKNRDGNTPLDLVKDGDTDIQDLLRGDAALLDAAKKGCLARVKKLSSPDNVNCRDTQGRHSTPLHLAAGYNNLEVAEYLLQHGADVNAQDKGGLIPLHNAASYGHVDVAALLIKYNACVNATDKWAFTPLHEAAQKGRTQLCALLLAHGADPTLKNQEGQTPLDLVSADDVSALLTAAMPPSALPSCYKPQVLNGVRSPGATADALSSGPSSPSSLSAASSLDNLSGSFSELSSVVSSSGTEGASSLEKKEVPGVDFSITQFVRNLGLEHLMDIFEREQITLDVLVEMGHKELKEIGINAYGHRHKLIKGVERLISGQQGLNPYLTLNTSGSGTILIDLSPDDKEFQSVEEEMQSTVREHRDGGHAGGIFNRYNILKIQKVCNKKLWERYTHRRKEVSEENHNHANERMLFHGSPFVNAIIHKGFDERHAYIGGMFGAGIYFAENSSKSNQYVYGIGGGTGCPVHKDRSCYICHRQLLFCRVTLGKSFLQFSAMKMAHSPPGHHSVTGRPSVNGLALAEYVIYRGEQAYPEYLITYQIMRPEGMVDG
Nature of the experiment: TNKS2 Assay B (auto-parsylation, [3H]-NAD+ SPA). Conditions: 6 nM TNKS2, auto-parsylation, over night at room temperature. The experiment is classed as biochemical.

By IC50 is commonly meant the concentration needed to halve the response being measured. Low values mean inhibition by little substance, high ones a need for much substance.

For the molecule `COCC(C)NC(=O)c1nc[nH]c1C(=O)N[C@H]1CC[C@@]2(CCN(c3ccc(F)cc3Cl)C2=O)CC1` (mixture of isomers) [Example 164, N^5-[(trans)-2-(2-chloro-4-fluorophenyl)-1-oxo-2-azaspiro[4.5]dec-8-yl]-N^4-(1-methoxypropan-2-yl)-1H-imidazole-4,5-dicarboxamide], the half-maximal inhibitory concentration (IC50) stood at 9.2 nM in experiment [1] (Homo sapiens, HEK293, 16 h) and 28 nM against TNKS2.
On to `Cc1c(C(C)N(C)C)cnc2c(C(=O)N[C@H]3CC[C@H](C(=O)Nc4ccc(F)cc4Cl)CC3)cnn12` (single isomer, unassigned) [Example 56, N-{trans-4-[(2-chloro-4-fluorophenyl)carbamoyl]cyclohexyl}-6-[1-(dimethylamino)ethyl]-7-methylpyrazolo[1,5-a]pyrimidine-3-carboxamide], for which the half-inhibitory concentration (IC50) in experiment [1] amounted to 990 nM; at TNKS2, 370 nM.
Regarding `Cc1c(C(C)N(C)C)cnc2c(C(=O)N[C@H]3CC[C@H](C(=O)Nc4ccc(F)cc4Cl)CC3)cnn12` (single isomer, unassigned) [Example 57, N-{trans-4-[(2-chloro-4-fluorophenyl)carbamoyl]cyclohexyl}-6-[1-(dimethylamino)ethyl]-7-methylpyrazolo[1,5-a]pyrimidine-3-carboxamide], the values for the IC50 (in experiment [1]; at TNKS2) were 310 nM and 160 nM, respectively.
As for `CNC(=O)c1nc[nH]c1C(=O)N[C@H]1CC[C@H](C(=O)Nc2cc(F)c(F)cc2Cl)CC1` [Example 3, N^5-{trans-4-[(2-chloro-4,5-difluorophenyl)carbamoyl]cyclohexyl}-N^4-methyl-1H-imidazole-4,5-dicarboxamide], the IC50 in experiment [1] (Homo sapiens, HEK293, 16 h) amounted to 13 nM; at TNKS2, 8.1 nM.
`O=C(NCCN1CCCCC1)c1nc[nH]c1C(=O)N[C@H]1CC[C@H](C(=O)Nc2cc(F)c(F)cc2Cl)CC1` [Example 4, N^5-{trans-4-[(2-chloro-4,5-difluorophenyl)carbamoyl]cyclohexyl}-N^4-[2-(piperidin-1-yl)ethyl]-1H-imidazole-4,5-dicarboxamide]: the half-maximal inhibitory concentration (IC50) in experiment [1] (Homo sapiens, HEK293, 16 h) came to 10 nM; at TNKS2 it was 2.1 nM.
In the case of `CNC(=O)c1nc[nH]c1C(=O)N[C@H]1CC[C@H](C(=O)Nc2cc(OC)c(OC)cc2Cl)CC1` [Example 5, N^5-{trans-4-[(2-chloro-4,5-dimethoxyphenyl)carbamoyl]cyclohexyl}-N^4-methyl-1H-imidazole-4,5-dicarboxamide], the concentration for half-maximal inhibition (IC50) in experiment [1] (Homo sapiens, HEK293, 16 h) turned out to be 190 nM; against TNKS2 it was 110 nM.
In the case of `CNC(=O)c1nc[nH]c1C(=O)N[C@H]1CC[C@H](C(=O)Nc2c(F)cc(F)cc2Cl)CC1` [Example 6, N^5-{trans-4-[(2-chloro-4,6-difluorophenyl)carbamoyl]cyclohexyl}-N^4-methyl-1H-imidazole-4,5-dicarboxamide], the IC50 in experiment [1] (Homo sapiens, HEK293, 16 h) stood at 55 nM; on TNKS2 it was 60 nM.
For `CNC(=O)c1nc[nH]c1C(=O)N[C@H]1CC[C@H](C(=O)Nc2ccc(F)cc2Br)CC1` [Example 7, N^5-{trans-4-[(2-bromo-4-fluorophenyl)carbamoyl]cyclohexyl}-N^4-methyl-1H-imidazole-4,5-dicarboxamide], the IC50 in experiment [1] (Homo sapiens, HEK293, 16 h) stood at 30 nM; against TNKS2, 27 nM.
On to `CNC(=O)c1nc[nH]c1C(=O)N[C@H]1CC[C@H](C(=O)Nc2ccc(F)cc2)CC1` [Example 8, N^5-{trans-4-[(4-fluorophenyl)carbamoyl]cyclohexyl}-N^4-methyl-1H-imidazole-4,5-dicarboxamide], for which the half-inhibitory concentration (IC50) turned out to be 2100 nM in experiment [1] (Homo sapiens, HEK293, 16 h) and 2300 nM against TNKS2.
Consider `CNC(=O)c1nc[nH]c1C(=O)N[C@H]1CC[C@H](C(=O)Nc2ccc(C)cc2Cl)CC1` [Example 9, N^5-{trans-4-[(2-chloro-4-methylphenyl)carbamoyl]cyclohexyl}-N^4-methyl-1H-imidazole-4,5-dicarboxamide], for which the concentration for half-maximal inhibition (IC50) was 180 nM in experiment [1] (Homo sapiens, HEK293, 16 h) and 110 nM at TNKS2.
As for `CNC(=O)c1[nH]cnc1C(=O)NC1CCC(C(=O)Nc2ccc(F)cc2Cl)CC1OC` (stereo not drawn) [Example 36, N^4-{(1α,2β,4β)-4-[(2-chloro-4-fluorophenyl)carbamoyl]-2-methoxycyclohexyl}-N^5-methyl-1H-imidazole-4,5-dicarboxamide], the half-inhibitory concentration (IC50) is 4900 nM in experiment [1] and more than 10000 nM at TNKS2.
In the case of `CNC(=O)c1[nH]cnc1C(=O)NC1CCC(C(=O)Nc2ccc(F)cc2Cl)CC1OC` (stereo not drawn) [Example 37, N^4-{(1α,2β,4β)-4-[(2-chloro-4-fluorophenyl)carbamoyl]-2-methoxycyclohexyl}-N^5-methyl-1H-imidazole-4,5-dicarboxamide], the 50% inhibitory concentration (IC50) in experiment [1] was 43000 nM; against TNKS2, more than 10000 nM.
Take `O=C(NCCC1CC1)c1nc[nH]c1C(=O)N[C@H]1CC[C@H](C(=O)Nc2cc(N3CCOCC3)ccc2Cl)CC1` [Example 93, N^5-(trans-4-{[2-chloro-5-(morpholin-4-yl)phenyl]carbamoyl}cyclohexyl)-N^4-(2-cyclopropylethyl)-1H-imidazole-4,5-dicarboxamide]: the IC50 in experiment [1] (Homo sapiens, HEK293, 16 h) is 1500 nM; on TNKS2 it was 1600 nM.
Take `CC(C)(O)CNC(=O)c1nc[nH]c1C(=O)N[C@H]1CC[C@H](C(=O)Nc2cc(N3CCOCC3)ccc2Cl)CC1` [Example 94, N^5-(trans-4-{[2-chloro-5-(morpholin-4-yl)phenyl]carbamoyl}cyclohexyl)-N^4-(2-hydroxy-2-methylpropyl)-1H-imidazole-4,5-dicarboxamide]: the IC50 was 610 nM in experiment [1] (Homo sapiens, HEK293, 16 h) and 1600 nM at TNKS2.
For `O=C(NCC(F)(F)F)c1nc[nH]c1C(=O)N[C@H]1CC[C@H](C(=O)Nc2cc(N3CCOCC3)ccc2Cl)CC1` [Example 95, N^5-(trans-4-{[2-chloro-5-(morpholin-4-yl)phenyl]carbamoyl}cyclohexyl)-N^4-(2,2,2-trifluoroethyl)-1H-imidazole-4,5-dicarboxamide], the IC50 in experiment [1] (Homo sapiens, HEK293, 16 h) worked out at 2100 nM; against TNKS2, 4300 nM.
The matching figures for `CNC(=O)c1nc[nH]c1C(=O)N[C@H]1CC[C@H](C(=O)Nc2cnccc2Cl)CC1` [Example 96, N^5-{trans-4-[(4-chloropyridin-3-yl)carbamoyl]cyclohexyl}-N^4-methyl-1H-imidazole-4,5-dicarboxamide]: 22 nM and 28 nM.
For `O=C(NCC1CCCO1)c1nc[nH]c1C(=O)N[C@H]1CC[C@H](C(=O)Nc2cnccc2Cl)CC1` (stereo partly drawn) [Example 97, N^5-{trans-4-[(4-chloropyridin-3-yl)carbamoyl]cyclohexyl}-N^4-(tetrahydrofuran-2-ylmethyl)-1H-imidazole-4,5-dicarboxamide], the IC50 in experiment [1] (Homo sapiens, HEK293, 16 h) was found to be 34 nM; at TNKS2 it was 39 nM.
The matching figures for `COC(C)(C)CNC(=O)c1nc[nH]c1C(=O)N[C@H]1CC[C@H](C(=O)Nc2cnccc2Cl)CC1` [Example 98, N^5-{trans-4-[(4-chloropyridin-3-yl)carbamoyl]cyclohexyl}-N^4-(2-methoxy-2-methylpropyl)-1H-imidazole-4,5-dicarboxamide]: 570 nM and 39 nM.
On to `COCC(C)NC(=O)c1nc[nH]c1C(=O)N[C@H]1CC[C@H](C(=O)Nc2cnccc2Cl)CC1` (stereo partly drawn) [Example 99, N^5-{trans-4-[(4-chloropyridin-3-yl)carbamoyl]cyclohexyl}-N^4-(1-methoxypropan-2-yl)-1H-imidazole-4,5-dicarboxamide], for which the concentration for half-maximal inhibition (IC50) in experiment [1] (Homo sapiens, HEK293, 16 h) worked out at 51 nM; at TNKS2, 110 nM.
